Experimental findings from patent publication US20040142821A1, “Pesticide composition comprising malononitrile compounds” (priority 2001, published 2004) are described below.

Series [1] concerns Diabrotica undecimpunctata. In words: Pesticidal test against Diabrotica undecimpunctata, treated filter paper (Test Example 4). It counts as in vivo, Diabrotica undecimpunctata (southern-corn rootworm). The following applies: 50 ppm test liquid (Formulation Example 1), 1 ml on filter paper; 30 to 50 eggs and one germinated corn seed; 25° C. The method, then:
One germinated seed of corn and 30 to 50 eggs of Diabrotica undecimpunctata (southern-corn rootworm) was placed on the filter paper in the polyethylene cup, which was then kept covered and left in a room at 25° C. On the 6th day after, the number of surviving larvae of Diabrotica undecimpunctata was examined.

In a further series the test system is Cullex pipiens pallens. The experiment in a line: whole plant or invertebrate. The following applies: 24 h.
The next series concerns Musca domestics. In words: Pesticidal test against Musca domestics, treated filter paper with sucrose bait (Test Example 5). It is filed as in vivo. The following applies: 500 ppm test liquid (Formulation Example 5), 0.7 ml on filter paper, ten female adults, after 24 hours. The method, then: Ten female adults of Musca domestics (house fly) were set free in the polyethylene cup, which was then kept covered. After 24 hours, their survival was examined to determine the mortality.

Another series relates to German cockroach. In words: Pesticidal test against German cockroach, treated filter paper with sucrose bait (Test Example 6). It counts as in vivo. The following applies: Blattella germanica, 144 h; 500 ppm test liquid (Formulation Example 5), 0.7 ml on filter paper; two male adults; after 6 days. The source says:
Two male adults of German cockroach (Blattalla germanica) were set free in the polyethylene cup, which was then kept covered. After 6 days, their survival was examined to determine the mortality.

Experimental for Cullex pipiens pallens: In 100 ml of ion-exchanged water, the test liquid had been prepared as described above, was added dropwise in an amount of 0.7 ml (the concentration of active ingredient was 3.5 ppm). Twenty final-instar larvae of Cullex pipiens pallens (common mosquito) were set free in the solution. After 1 days, their survival was examined to determine the mortality.

`CCC(C#N)(C#N)Cc1ccc(Cl)cc1`: the melting point – broadly, the temperature of the solid-liquid transition – was 70.9 °C.
Regarding `C=CCC(C#N)(C#N)Cc1ccc(Cl)cc1` [Compound 1, 2-allyl-2-(4-chlorobenzyl)malononitrile], in series [1], the “number of surviving pests on the 6th day after” value (from here on “number of surviving pests”) stood at 0. The mortality (as a rule, the percentage killed) at 3.5 µg/mL in the series with Cullex pipiens pallens came to 100%. Moreover, the mortality at 500 ppm in the series with Musca domestics and in the series on German cockroach was 100% throughout.
Take `C=CCC(C#N)(C#N)C(C)(C)c1ccc(Cl)cc1` [Compound 2, 2-allyl-2-(1-(4-chlorophenyl)-1-methylethyl)malononitrile]: the “number of surviving pests” value in series [1] is reported as 0. The same compound yielded a mortality at 3.5 µg/mL in the series on Cullex pipiens pallens of 100%. The mortality at 500 ppm with German cockroach worked out at 100%.
As to `C=CCC(C#N)(C#N)C(c1ccc(Cl)cc1)C(C)C` (stereo not drawn) [Compound 3, 2-allyl-2-(1-(4-chlorophenyl)-2-methylpropyl)malononitrile], the “number of surviving pests” value in series [1] came out at 0. Also, the mortality at 3.5 µg/mL with Cullex pipiens pallens is 100%. Also, the mortality at 500 ppm in the series with Musca domestics and with German cockroach was 100% in each case.
As for `C=CCCC(C#N)(C#N)Cc1ccc(Cl)cc1` [Compound 4, 2-(3-butenyl)-2-(4-chlorobenzyl)malononitrile], in series [1], the “number of surviving pests” value is recorded as 0. Further, in the series on Cullex pipiens pallens, the mortality at 3.5 µg/mL is 100%. Besides, the mortality at 500 ppm in the series with Musca domestics and in the series with German cockroach was 100% each time.
For `C=CCC(C#N)(C#N)Cc1ccc(C(F)(F)F)cc1` [Compound 5, 2-allyl-2-(4-(trifluoromethyl)benzyl)malononitrile], the “number of surviving pests” value in series [1] is 0. The compound further came in with a mortality at 3.5 µg/mL in the series on Cullex pipiens pallens of 100%. In addition, the mortality at 500 ppm in the series on German cockroach turned out to be 100%.
As for `N#CC(C#N)(Cc1ccc(Cl)cc1)C1CCCCC1` [Compound 9, 2-(4-chlorobenzyl)-2-cyclohexylmalononitrile], in series [1], the “number of surviving pests” value is listed as 0. Moreover, the mortality at 3.5 µg/mL with Cullex pipiens pallens worked out at 100%. The same compound had a mortality at 500 ppm in the series on German cockroach of 100%.
On to `C=CCCC(C#N)(C#N)C(C)c1ccc(Cl)cc1` (stereo not drawn) [Compound 10, 2-(3-butenyl)-2-(1-(4-chlorophenyl)ethyl)malononitrile], for which the “number of surviving pests” value in series [1] worked out at 0. The compound also registered a mortality at 3.5 µg/mL with Cullex pipiens pallens of 100%. Further, the mortality at 500 ppm in the series with Musca domestics and in the series with German cockroach was 100% in each case.
With `C=CCC(C#N)(C#N)Cc1ccc(OC(F)(F)F)cc1` [Compound 11, 2-allyl-2-(4-(trifluoromethoxy)benzyl)malononitrile], the “number of surviving pests” value in series [1] worked out at 0. In the series on Cullex pipiens pallens, this compound returned a mortality at 3.5 µg/mL of 100%. The mortality at 500 ppm in the series on Musca domestics and in the series with German cockroach was 100% each time.
On to `C=CCCC(C#N)(C#N)C(c1ccc(OC(F)(F)F)cc1)C(C)C` (stereo not drawn) [Compound 12], for which, in series [1], the “number of surviving pests” value is listed as 0.
For the compound `C=CCC(C#N)(C#N)Cc1ccc(C#N)cc1` [Compound 14, 2-allyl-2-(4-cyanobenzyl)malononitrile], the melting point was determined as 81.9 °C.
Take `C=CCCC(C#N)(C#N)C(C)c1ccc(OC(F)(F)F)cc1` (stereo not drawn) [Compound 16, 2-(3-butenyl)-2-(1-(4-(trifluoromethoxy)phenyl)ethyl)malononitrile]: the “number of surviving pests” value in series [1] was 0. In addition, in the series on Cullex pipiens pallens, the mortality at 3.5 µg/mL stood at 100%. The compound also returned a mortality at 500 ppm in the series with German cockroach of 100%.
Turning to `CC(C)CC(C#N)(C#N)Cc1ccc(Cl)cc1` [Compound 19, 2-(4-chlorobenzyl)-2-isobutylmalononitrile], in series [1], the “number of surviving pests” value is 0. The compound also showed a mortality at 3.5 µg/mL in the series on Cullex pipiens pallens of 100%.
For `C=CCCCC(C#N)(C#N)Cc1ccc(Cl)cc1` [Compound 21, 2-(4-chlorobenzyl)-2-(4-pentenyl)malononitrile], in that order: 0 and 100%.
For `C=CC(C)C(C#N)(C#N)Cc1ccc(Cl)cc1` (stereo not drawn) [Compound 22, 2-(4-chlorobenzyl)-2-(1-methyl-2-propenyl)malononitrile], the “number of surviving pests” value in series [1] is 0. In the series with Cullex pipiens pallens, this compound showed a mortality at 3.5 µg/mL of 100%. This compound also returned a mortality at 500 ppm with Musca domestics of 100%.
As to `C=CCC(C#N)(C#N)Cc1ccc(Cl)c(Cl)c1` [Compound 23, 2-allyl-2-(3,4-dichlorobenzyl)malononitrile], the “number of surviving pests” value in series [1] turned out to be 0. The compound also came in with a mortality at 3.5 µg/mL in the series on Cullex pipiens pallens of 100%. Also, in the series with German cockroach, the mortality at 500 ppm was determined as 100%.
For the compound `C=CCC(C#N)(C#N)Cc1ccc(Cl)cc1Cl` [Compound 24, 2-allyl-2-(2,4-dichlorobenzyl)malononitrile], the “number of surviving pests” value in series [1] stood at 0. Moreover, the mortality at 3.5 µg/mL with Cullex pipiens pallens is 100%. This compound yielded a mortality at 500 ppm with Musca domestics of 100%.
With `C=CCCC(C#N)(C#N)C(c1ccc(Cl)cc1)C(C)C` (stereo not drawn) [Compound 26, 2-(3-butenyl)-2-(1-(4-chlorophenyl)-2-methylpropyl)malononitrile], the “number of surviving pests” value in series [1] is 0. Further, in the series with Cullex pipiens pallens, the mortality at 3.5 µg/mL turned out to be 100%.
For the compound `C=CCC(C#N)(C#N)Cc1ccc([N+](=O)[O-])cc1` [Compound 50, 2-allyl-2-(4-nitrobenzyl)malononitrile], the melting point was found to be 94.2 °C.
On the same count and under the same terms, the figure for `C=CCC(C#N)(C#N)Cc1c(F)c(F)c(F)c(F)c1F` [Compound 62, 2-allyl-2-(2,3,4,5,6-pentafluorobenzyl)malononitrile] is 78.2 °C.
As to `C=CCC(C#N)(C#N)C(c1cccc(Cl)c1)C(C)C` (stereo not drawn) [Compound 66, 2-allyl-2-(1-(3-chlorophenyl)-2-methylpropyl)malononitrile], the “number of surviving pests” value in series [1] stood at 0. The mortality at 3.5 µg/mL in the series with Cullex pipiens pallens was 100%. In the series on Musca domestics, this compound came in with a mortality at 500 ppm of 100%.
The compound `CC/C=C\CCC(C#N)(C#N)Cc1ccc(Cl)cc1` [Compound 73, 2-(4-chlorobenzyl)-2-((Z)-3-hexenyl)malononitrile] gave a melting point of 44.8 °C.
`C=CCC(C#N)(C#N)C(C)c1ccc(Cl)cc1` (stereo not drawn) [Compound 74, 2-allyl-2-(1-(4-chlorophenyl)ethyl)malononitrile]: in series [1], the “number of surviving pests” value is given as 0. For the same compound, in the series on Cullex pipiens pallens, the mortality at 3.5 µg/mL came out at 100%. In addition, the mortality at 500 ppm in the series with Musca domestics and in the series with German cockroach was 100% each time.
With `C=CCCCC(C#N)(C#N)C(C)c1ccc(Cl)cc1` (stereo not drawn) [Compound 76, 2-(1-(4-chlorophenyl)ethyl)-2-(4-pentenyl)malononitrile], in series [1], the “number of surviving pests” value was found to be 0. Moreover, the mortality at 3.5 µg/mL in the series with Cullex pipiens pallens was determined as 100%.
On to `C=CCC(C#N)(C#N)Cc1ccc(C)cc1` [Compound 77, 2-allyl-2-(4-methylbenzyl)malononitrile], for which the melting point turned out to be 74.5 °C.
